Test results from US20230099822A1, “MR1 LIGANDS AND PHARMACEUTICAL COMPOSITIONS FOR IMMUNOMODULATION” (UNIVERSITÄT BASEL, priority 2020, published 2023).
Values belong to the compound of their own block, whether it stands above or below them.

Experiments:
[1] = test system: MR1T cell clones; experiment: MR1T cell activation assay with THP-1 cells incubated with compounds (cytokine ELISA); type: cell-based, human; settings: for number of MR1T clones significantly stimulated: fourteen randomly selected MR1T clones, THP-1 cells, IFN-γ (FIG. 12B); for activation of MR1T clone MCA3C3 (IFN-γ): THP-1 cells pre-incubated with 250 μM of molecule (FIG. 8G, right); for activation of MR1T clone DGB129 (IFN-γ): THP-1 cells pre-incubated with 250 μM of molecule (FIG. 8G, middle)
Method: MR1T cells (5×10^4/well unless otherwise indicated) were co-cultured with the indicated APCs (10^5 cells per well unless otherwise indicated) for 18 h in 120 μL volume in triplicate.
When nucleobases, nucleosides or nucleotides (all 250 μM) and synthetic compounds M3ADE, OPdA, M1G or OPdC were used to stimulate T cells, the THP-1 cells (10^5/well) were cultured 2 h with the indicated molecules or medium only, prior to T-cell addition. When a single concentration of synthetic antigens was used, 100 μM OPdA, 100 μM OPdC and 13 μM M1G were used for all clones, while 100 μM M3ADE was used for all clones except DGB129, AC1A4, AC1B76 and AVA46 for which 1 μM was used.

[2] = biological target: T1, MR1 surface expression on THP-1 MR1 cells (Homo sapiens, UniProt Q95460); experiment: Cell surface MR1 modulation on APCs (flow cytometry, anti-MR1 mAb 26.5); type: cell-based; settings: for cell surface MR1 upregulation on APCs (in words): pulsed APC / THP1-MR1 cells
T1 construct: expressed in transfected cells; host or cells: THP-1 (ATCC TIB-202) stably expressing MR1 (THP1-MR1)
Method: […] […] For each condition, net MFI was calculated subtracting isotype MFI from anti-MR1 MFI and fold change of cells treated with synthetic molecules over cells treated with vehicle was calculated.

[3] = test system: MR1T cell clones; experiment: Competition assay for stimulation of MR1T cell clones; type: cell-based, human; settings: APCs with compound 2 h (3 doses), then antigen at optimal concentration, cytokine ELISA
Method: As positive control for competition with antigens, Ac-6-FP was used (100 μM). Supernatants were collected after 24 h for cytokine analysis measured by ELISA.

[4] = THP-1 MR1 cells, 3 h at 37° C., 3 doses each

MRI upregulation [2, 4]: YES
SMILES: O=C/C=C/Nc1ncnc2c1ncn2[C@H]1C[C@H](O)[C@@H](CO)O1 (stereo in doubt) [Cmpd 12, N6-(3-oxo-1-propenyl)-2′-deoxyadenosine]
Reactive T cells isolated [1]: YES

MRI upregulation [2, 4]: YES
SMILES: O=c1[nH]cc([C@@H]2O[C@H](CO)C(O)C2O)c(=O)[nH]1 (stereo in doubt) [Cmpd 36, 5-(3,4-dihydroxy-5-(hydroxymethyl)tetrahydrofuran-2-yl)pyrimidine-2,4(1H,3H)-dione]
Competition [3]: YES

SMILES: O=C/C=C/Nc1ccn([C@H]2C[C@H](O)[C@@H](CO)O2)c(=O)n1 (stereo in doubt) [Cmpd 38, N4-(3-oxo-1-propenyl)-2′-deoxycytidine]
activation of MR1T clone TC5A87 by adduct [1]: activated
stimulation of MR1T clone QY1A16 by adduct [1]: stimulated
number of MR1T clones significantly stimulated [1]: three

SMILES: Nc1ncnc2c1ncn2[C@@H]1O[C@H](COP(=O)(O)OP(=O)(O)O)[C@@H](O)[C@H]1O [ADP, reference compound]
activation of MR1T clone MCA3C3 (IFN-γ) [1]: activated

MRI upregulation [2, 4]: YES
SMILES: Cn1cnc2c(ncn2[C@@H]2O[C@H](CO)[C@@H](O)[C@H]2O)c1=N [Cmpd 1, 1-methyladenosine]
Competition [3]: YES

MRI upregulation [2, 4]: YES
cell surface MR1 upregulation on APCs (in words) [2]: upregulation
SMILES: Cc1nc(N)c2ncn([C@@H]3O[C@H](CO)[C@@H](O)[C@H]3O)c2n1 [Cmpd 2, 2-methyladenosine]
Competition [3]: YES

MRI upregulation [2, 4]: YES
SMILES: CO[C@@H]1[C@H](O)[C@@H](CO)O[C@H]1n1cnc2c(N)ncnc21 [Cmpd 3, 2′-O-methyladenosine]
Reactive T cells isolated [1]: YES

MRI upregulation [2, 4]: YES
SMILES: CN(C)c1ncnc2c1ncn2[C@@H]1O[C@H](CO)[C@@H](O)[C@H]1O [Cmpd 4, N6,N6-dimethyladenosine]
Reactive T cells isolated [1]: YES
compound-specific MR1T cell activation (IFN-γ) ([1]; clones DGB129, MCA2E7 and TC5A87, THP-1 cells, overnight (FIG. 3)): activation

SMILES: C/C(=C\CNc1ncnc2c1ncn2[C@@H]1O[C@H](CO)C(O)C1O)CO (stereo partly drawn) [Cmpd 7, N6-(cis-hydroxyisopent-2-enyl) adenosine]
Competition [3]: YES

MRI upregulation [2, 4]: YES
SMILES: CSc1nc(NC/C=C(\C)CO)c2ncn([C@@H]3O[C@H](CO)C(O)C3O)c2n1 (stereo partly drawn) [Cmpd 8, 2-methylthio-N6-(cis-hydroxyisopent-2-enyl) adenosine]
Reactive T cells isolated [1]: YES

SMILES: CSc1nc(NCC=C(C)C)c2ncn([C@@H]3O[C@H](CO)[C@@H](O)[C@H]3O)c2n1 [Cmpd 9, 2-methylthio-N6-isopent-2-enyladenosine]
Competition [3]: YES

SMILES: O=C/C=C/Nc1ncnc2c1ncn2[C@H]1C[C@H](O)[C@@H](CO)O1 [Cmpd 12, N6-(3-oxo-1-propenyl)-2′-deoxyadenosine]
activation of MR1T clone AC1A4 by adduct [1]: activated
activation of MR1T clone TC5A87 by adduct [1]: activated
stimulation of MR1T clone QY1A16 by adduct [1]: stimulated
number of MR1T clones significantly stimulated [1]: eight

MRI upregulation [2, 4]: YES
SMILES: CCCCCC(=O)Cc1cnc2c3ncn([C@H]4C[C@H](O)[C@@H](CO)O4)c3ncn12 [Cmpd 14, 1-(3-((2R,4S,5R)-4-hydroxy-5-(hydroxymethyl)tetrahydrofuran-2-yl)-3H-imidazo[2,1-i]purin-7-yl)heptan-2-one]

SMILES: Cn1c(N)nc2c(ncn2[C@@H]2O[C@H](CO)[C@@H](O)[C@H]2O)c1=O [Cmpd 15, 1-methylguanosine]
Reactive T cells isolated [1]: YES
Competition [3]: YES

MRI upregulation [2, 4]: YES
SMILES: CNc1nc2c(ncn2[C@@H]2O[C@H](CO)[C@@H](O)[C@H]2O)c(=O)[nH]1 [Cmpd 16, N2-methylguanosine]

SMILES: C[n+]1cn([C@@H]2O[C@H](CO)[C@@H](O)[C@H]2O)c2nc(N)[nH]c(=O)c21 [Cmpd 17, 7-methylguanosine]
Reactive T cells isolated [1]: YES
Competition [3]: YES

MRI upregulation [2, 4]: YES
SMILES: O=c1c2nc[nH]c2nc2ncccn12 [Cmpd 24, pyrimido(1,2-a)purin-10(1H)-one]
Reactive T cells isolated [1]: YES
activation of MR1T clone AC1A4 by adduct [1]: activated
response to THP-1 cells when adduct added ([1]; M1G or M3ADE added to clones QY1A16 and QY1C3, respectively): significant decreased response
number of MR1T clones significantly stimulated [1]: three

MRI upregulation [2, 4]: YES
SMILES: CCCCCC(=O)Cc1c[nH]c2nc3c(ncn3[C@H]3C[C@H](O)[C@@H](CO)O3)c(=O)n12 [Cmpd 25, 3-((2R,5R)-4-hydroxy-5-(hydroxymethyl)tetrahydrofuran-2-yl)-7-(2-oxoheptyl)-3H-imidazo[1,2-a]purin-9(5H)-one]

MRI upregulation [2, 4]: YES
SMILES: O=C/C=C/Nc1ccn([C@H]2C[C@H](O)[C@@H](CO)O2)c(=O)n1 [Cmpd 38, N4-(3-oxo-1-propenyl)-2′-deoxycytidine]

MRI upregulation [2, 4]: YES
SMILES: CSc1ncnc2c1ncn2[C@@H]1O[C@H](CO)[C@@H](O)[C@H]1O [Cmpd 40, (2R,3S,4R,5R)-2-(hydroxymethyl)-5-(6-(methylthio)-9H-purin-9-yl)tetrahydrofuran-3,4-diol]
Reactive T cells isolated [1]: YES

MRI downmodulation [2, 4]: YES
SMILES: Cn1c(N)nc2[nH]cnc2c1=O [Cmpd 47, 1-Methylguanine]

MRI upregulation [2, 4]: YES
SMILES: CNc1nc2c(ncn2[C@H]2C[C@H](O)[C@@H](CO)O2)c(=O)[nH]1 [Cmpd 48, N2-Methyl-2′-deoxyguanosine]

SMILES: CSC[C@H]1O[C@@H](n2cnc3c(N)ncnc32)[C@H](O)[C@@H]1O [Cmpd 52, 5′-Deoxy-5′-(methylthio)adenosine]
Competition [3]: YES

SMILES: CNc1ncnc2c1ncn2[C@H]1C[C@H](O)[C@@H](CO)O1 [Cmpd 53, N6-Methyl-2′-deoxyadenosine]
Reactive T cells isolated [1]: YES

SMILES: OCCNc1ncnc2c1ncn2[C@H]1C[C@H](O)[C@@H](CO)O1 [Cmpd 54, N6-(2-Hydroxyethyl)-2′-deoxyadenosine]
Reactive T cells isolated [1]: YES

SMILES: CC(=O)C=O [MG, methylglyoxal, reference compound]
MR1T-cell stimulation by GLO1-deficient compared to wild-type THP-1 cells ([1]; clone DGB129, Methylglyoxal (FIG. 9I)): significantly increased
MR1T-cell stimulation with GLO1-overexpressing THP-1 cells ([1]; clone DGB129, Methylglyoxal (FIG. 9J)): failed to induce

cell surface MR1 upregulation on APCs (in words) [2]: upregulation
SMILES: CN(C)c1ncnc2c1ncn2[C@@H]1O[C@H](CO)[C@@H](O)[C@H]1O [N6,N6-dimethyladenosine]

SMILES: Nc1ncnc2nc[nH]c12 [adenine, reference compound]
activation of MR1T clone DGB129 (IFN-γ) [1]: reacted

SMILES: Nc1ncnc2c1ncn2[C@@H]1O[C@H](CO)[C@@H](O)[C@H]1O [adenosine, reference compound]
activation of MR1T clone DGB129 (IFN-γ) [1]: reacted

SMILES: Nc1ncnc2c1ncn2[C@H]1C[C@H](O)[C@@H](CO)O1 [deoxyadenosine, reference compound]
activation of MR1T clone DGB129 (IFN-γ) [1]: reacted
MR1T reactivity using GLO1-deficient THP-1 cells as APCs ([1]; clone DGB129, deoxyadenosine (FIG. 9K)): increased
MR1T reactivity using GLO1-overexpressing THP-1 cells ([1]; clone DGB129, deoxyadenosine (FIG. 9L)): decreased

SMILES: Nc1nc2c(ncn2[C@H]2C[C@H](O)[C@@H](CO)O2)c(=O)[nH]1 [deoxyguanosine, reference compound]
activation of MR1T clone MCA3C3 (IFN-γ) [1]: activated

SMILES: Nc1nc2nc[nH]c2c(=O)[nH]1 [guanine, reference compound]
activation of MR1T clone MCA3C3 (IFN-γ) [1]: activated

SMILES: Nc1nc2c(ncn2[C@@H]2O[C@H](CO)[C@@H](O)[C@H]2O)c(=O)[nH]1 [guanosine, reference compound]
activation of MR1T clone MCA3C3 (IFN-γ) [1]: activated

SMILES: OC[C@H]1O[C@@H](n2cnc3c(O)ncnc32)[C@H](O)[C@@H]1O [inosine, reference compound]
activation of MR1T clone DGB129 (IFN-γ) [1]: reacted

SMILES: O=c1[nH]c(=O)c2ncn([C@@H]3O[C@H](CO)[C@@H](O)[C@H]3O)c2[nH]1 [xanthosine, reference compound]
activation of MR1T clone MCA3C3 (IFN-γ) [1]: activated
